Source: patent US20210198284A1, “GOLD COMPOSITIONS AND METHODS OF USE THEREOF” (THE UNIVERSITY OF MASSACHUSETTS, priority 2018, published 2021)
Like-named read-outs stand apart in the source and are kept apart here.

Key:
A. baumannii NCTC 13420 = experiment: Antibacterial assay, MIC/MBC by broth microdilution (CLSI); assay type: cell-based; conditions: A. baumannii NCTC 13420; for MIC: repeated twice, a/b = both values
Experimental: (§1) Antibacterial assay. The minimum inhibitory concentrations (MICs) and the minimum bactericidal concentrations (MBCs) were determined by the broth microdilution method as described in the CLSI (The Clinical & Laboratory Standards Institute) guidelines (Performance standards for antimicrobial susceptibility testing: Clinical and Laboratory Standards Institute (CLSI), Twenty-Fifth informational supplement. Document M100-S25: […]; Vol. 35). All bacterial strains were cultured in cation-adjusted Muller Hinton broth (CAMHB) up to log-phase and then diluted to give a concentration of 7.5×10^5 CFU/mL. The gold complexes were dissolved in DMSO or water as stock solutions, which were then serially diluted two-fold in a 96-well plate. Aliquots (100 μL) of the dilutions were mixed with equal volumes of the bacterium suspension in a 96 well plate (in triplicates). The plates were incubated at 37° C. for 18 h without shaking. Negative and positive controls were included in the same well plate with wells having the culture medium only and bacteria solution only, respectively. The sample concentration that gave inhibition values above 90% were determined as MICs as calculated from absorbance values at 600 nm (OD600) obtained using a Tecan SPARK IOM plate reader. To determine minimum bactericidal concentrations (MBCs), agar plates were treated with 5 μL sample solutions from each well, and then incubated at 37° C. for 18 h without shaking. The sample concentration that gave no colony formed on agar plates were determined as MBCs.
(§2) Selection of bacteria. The ESKAPE pathogens were chosen as they are responsible for the majority of nosocomial infections and also as they provide a good scope of strains including both Gram-negative and Gram-positive species. A. baumannii NCTC 13420 was originally identified in 24 hospitals in the UK during 2000-2003, which produced OXA-51-like β-lactamases, and was highly resistant to ampicillin, piperacillin, piperacillin/tazobactam, ceftazidime, cefotaxime, gentamicin and ciprofloxacin. P. aeruginosa NCTC13437 produces VIM-10 metallo-carbapenemase and VEB-1 (Vietnamese extended-spectrum beta-lactamase). Wild-type strain E. cloacae NCTC 13405 (originally named E. cloacae 684) was isolated from patients at the London Hospital during 1982-1983. This strain has inducible AmpC β-lactamase and is resistant to ampicillin/amoxicillin and cefoxitin. K. pneumoniae ATCC 700603 was isolated from the urine of a hospitalized patient in Richmond, Va. in 1994, and it produces SHV-18 extended spectrum beta-lactamase (ESBL). JE2 (USA300) is a methicillin-resistant S. aureus (MRSA) strain, also resistant to beta-lactams, ciprofloxacin, tetracycline, macrolides (erythromycin), lincosamides (clindamycin), streptogramin B, and mupirocin. E. faecium ATCC 700221, a positive fecal VRE (vancomycin-resistant enterococcus) isolate, is resistant to several antibiotics including vancomycin and teicoplanin. The quality control strain, Gram-negative E. coli ATCC 25922, was included in all assays and validated with ciprofloxacin and […].

E. cloacae NCTC 13405 = experiment: as above; assay type: cell-based; conditions: E. cloacae NCTC 13405; for MIC: repeated twice, a/b = both values
Experimental: as §1, §2

E. coli ATCC 25922 = experiment: as above; assay type: cell-based; conditions: for MIC: repeated twice, a/b = both values
Experimental: as §1, §2

E. faecalis ATCC 700221 = experiment: as above; assay type: cell-based; conditions: for MIC: repeated twice, a/b = both values
Experimental: as §1, §2

[1] = system: K. pneumoniae ATCC 700603; experiment: as above; assay type: cell-based; conditions: for MBC (in brackets) / MIC: K. pneumoniae ATCC 700603; for MIC: repeated twice, a/b = both values
Experimental: as §1, §2

P. aeruginosa NCTC 13437 = experiment: as above; assay type: cell-based; conditions: P. aeruginosa NCTC 13437; for MIC: repeated twice, a/b = both values
Experimental: as §1, §2

S. aureus JE2 (USA300) = experiment: as above; assay type: cell-based; conditions: S. aureus JE2 (USA300); for MIC: repeated twice, a/b = both values
Experimental: as §1, §2

A549 cells = experiment: Cytotoxicity assay (resazurin); assay type: cell-based; conditions: 20 h, mean±S.E.M. from two independent experiments
Experimental: Sample preparation. The compounds were dissolved in DMSO at 12.8 mg/mL as the stock solutions, except for compounds 9-17, which were directly dissolved in the culture medium at 12.8 mg/mL. The stock solutions were diluted by the culture medium to the testing concentration at 128 μg/mL (compound 9-17 were diluted to 1,280 μg/mL). The solutions were then serially diluted two fold in a 96-well plate and were used in the cytotoxicity assay immediately.
Cell culture and cytotoxicity assay. A549 cells (ATCC CCL-185) were cultured in high glucose DMEM (Sigma-Aldrich, D6429) supplemented with 10% FBS, 1% penicillin-streptomycin solution (Sigma-Aldrich, P4333), 1% gentamicin solution (Sigma-Aldrich, G1272) and 1% amphotericin B solution (Sigma-Aldrich, A2942) at 37° C. in a humidified atmosphere containing 5% CO2. After cells reached 80%˜90% confluency, they were detached and counted using an Invitrogen Countess automated cell counter. Cells with viability over 90% were seeded at a density of 5×10^3 cells per well in 96-well cell culture plates. After overnight culture, the culture medium in each well removed with a pipet. 80 μL of the compound solutions from each well of the 96-well plate prepared above were transferred to this 96-well plate containing the cells, and the plates were incubated for 20 h. After addition of 8 μL of 110 μg/mL resazurin, the plates were incubated for further 3 h at 37° C. in 5% CO2. The fluorescence intensity was measured using a Tecan M200 Infinite Pro microplate reader at excitation 560 nm, emission 590 nm. IC50 were calculated by curve fitting the inhibition values vs. log(concentration) using GraphPad's Prism. The cytotoxicity assays (in triplicate) were repeated twice using freshly prepared cells and compound solutions.

[2] = Log P determination (n-octanol/water, FAAS)
Experimental: Log P Determination: Calibration curves. Milli-Q Water (150 mL) was added to n-octanol (150 mL), and the mixture was stirred for 3 days to allow both phases to reach saturation. The gold standard solution (1000 ppm Au in hydrochloric acid, Fisher Scientific) was diluted to 1, 2, 3, 4 and 5 ppm with n-octanol-saturated water, and the absorbance of the resulting solutions was measured by flame atomic absorption spectroscopy (FAAS, Agilent Technology 200 Series AA, equipped with a gold HC Lamp-Au coded). The absorbance data were plotted against Au concentration, and the resulting calibration curve was used for determining the concentration of the analogs in the aqueous phase.
To construct the standard calibration curve of the Au concentration in the n-octanol phase, compound 27 was used. The Au concentration in compound 27 was first calibrated against the aqueous gold standard. For this, 0.440 mg of compound 27 was weighed on a Sartorius MC5 microbalance, and then added to 22 mL of n-octanol-saturated water. […] For this, solutions of varying concentrations (0.99, 2.47, 4.94, 5.93, 9.88 ppm) of compound 27 in water-saturated n-octanol were prepared. The absorbance was measured by FAAS, and the data were plotted against the Au concentration to provide a second calibration curve, which was used for determining the Au concentration of the analogs in the n-octanol phase.
Determination of Au concentrations: Method 1. 0.5 to 1 mg of compound was weighed into a 2-mL Eppendorf tube containing 2 mL of n-octanol-saturated water. After shaking for about 4 h, the solution was centrifuged at 6000 rpm for 3 min. 1 mL of the supernatant was transferred to a new tube containing 1 mL of water-saturated n-octanol, and the mixture was shaken for 1 h. After centrifugation at 6000 rpm for 5 min, the two layers were collected and the gold concentration in each layer was determined by FAAS by comparing the absorbance to the first and second calibration curves.
Determination of Au concentrations: Method 2. […] For Method 2, 0.6 to 1 mg of compound was weighed into a 2-mL Eppendorf tube containing 1 mL of n-octanol-saturated water and 1 mL of water-saturated n-octanol. After shaking for 3-4 h, the mixture was centrifuged, and all liquid was transferred to a 15-mL tube. The liquid was then diluted with 2 mL of n-octanol-saturated saturated water and 2 mL of water-saturated n-octanol, and the mixture was shaken for another hour. After centrifugation at 6000 rpm for 5 min, the two layers were collected and the gold concentration in each layer was determined by FAAS by comparing the absorbance to the first and second calibration curves.
Log P was calculated as follows: log P=log[compound]oct/[compound]water

[3] = system: C. neoformans ATCC 208821; experiment: Antifungal MIC; assay type: cell-based; conditions: C. neoforman, strain not named

Molecule	MBC (in brackets) (A. baumannii NCTC 13420)	MIC (A. baumannii NCTC 13420)	MBC (in brackets) (E. cloacae NCTC 13405)	MIC (E. cloacae NCTC 13405)	MBC (in brackets) (E. coli ATCC 25922)	MIC (E. coli ATCC 25922)	MBC (in brackets) (E. faecalis ATCC 700221)	MIC (E. faecalis ATCC 700221)	MBC (in brackets) [1]	MIC [1]	MBC (in brackets) (P. aeruginosa NCTC 13437)	MIC (P. aeruginosa NCTC 13437)	MBC (in brackets) (S. aureus JE2 (USA300))	IC50 against A549 cells (A549 cells)	Log P [2]	MIC (S. aureus JE2 (USA300))	Log P ([2]; n-octanol/water, gold by FAAS)	other results
(4-Aminobenzenethiolato)(triethylphosphine) gold(I) [Compound 20]	18 (18) μM/mL	18 (18) μM/mL	36 (36) μM/mL	36 (36) μM/mL	9 (9) μM/mL	9 (9) μM/mL	(0.1) μM/mL	0.02 μM/mL	36 (36) μM/mL	36 (36) μM/mL	146 (146) μM/mL	146 (146) μM/mL	2 (0.07) μM/mL	6.5 ± 1.1 µg/mL	1.36			MIC or MIC/MBC, fold lower than auranofin ([1]; K. pneumoniae): 10 fold; MIC/MBC ([1]; K. pneumoniae): 36 µM
(2-Acetamido-2-deoxy-1-thio-β-D-glucopyranosato)(trimethylphosphine) gold(I) [Compound 17]	16 μM/mL	16/8	16 μM/mL	8/16	(31) μM/mL	8/31	(0.5) μM/mL		126 μM/mL	31 μM/mL		>503 μM/mL	0.5 (0.5) μM/mL	35.5 ± 0.9 µg/mL	−2.03	0.5 (0.5) μM/mL		
(1-Thio-β-D-galatopyranosato)(triethylphosphine) gold(I) [Compound 10]	31 (31) μM/mL	31 (31) μM/mL	63 (63) μM/mL	63 (63) μM/mL	16 (16) μM/mL	16 (16) μM/mL	(0.5) μM/mL		251 (251) μM/mL	251 (251) μM/mL	251 (251) μM/mL	251 (251) μM/mL	(0.1) μM/mL	16.9 ± 0.5 µg/mL	−0.73	0.02 μM/mL		
(Tris(4-methoxyphenyl)phosphine) gold chloride [Compound 32]		>438 μM/mL		>438 μM/mL		>438 μM/mL	3 (3) μM/mL	3 (3) μM/mL		>438 μM/mL		>438 μM/mL	3 μM/mL	9.4 ± 1.7 µg/mL		2 μM/mL	>4.09	
(Triethylphosphine) gold chloride [Compound 29]	23 μM/mL	11/23	23 (23) μM/mL	23 (23) μM/mL	23 (23) μM/mL	23 (23) μM/mL	(0.7) μM/mL		46 (46) μM/mL	46 (46) μM/mL	183 μM/mL	92 μM/mL	02 (0.2) μM/mL	9.5 ± 0.1 µg/mL			1.74	
(Tris(4-trifluoromethylphenyl)phosphine) gold chloride [Compound 34]		>366 μM/mL		>366 μM/mL		>366 μM/mL		>366 μM/mL		>366 μM/mL		>366 μM/mL	11 μM/mL	85.6 ± 26.1 µg/mL		3/1	>3.94	
CC[P+](CC)(CC)[Au-]1[SH](CC2O[C@H](O[C@H]3OC(COC(C)=O)[C@@H](OC(C)=O)C(OC(C)=O)[C@H]3OC(C)=O)C(OC(C)=O)[C@@H](OC(C)=O)[C@@H]2OC(C)=O)[Au]1[PH](CC)(CC)CC (some centres unmarked) [Compound 7]																		logP [2]: -0.28; antifungal activity in words [3]: moderate antifungal activity
